In experiment [1] the target is T1, human neurokinin 1 (NK1) receptor (Homo sapiens, UniProt P25103).
T1 construct: expressed in transfected cells; host or cells: Chinese Hamster ovary (CHO) cells
The experiment in a line: Neurokinin Receptor Binding Assay, NK1. On the procedure: (§1) Neurokinin Receptor Binding Assay(s)
(§2) Chinese Hamster ovary (CHO) cells transfected with the coding regions for the human neurokinin 1 (NK1) of the human neurokinin 2 (NK2) receptors are grown in Dulbecco's minimal essential medium supplemented with 10% fetal calf serum, 0.1 mM non-essential amino acids, 2 mM glutamine, 100units/ml of penicillin and streptomycin, and 0.8 mg of G418/ml at 37° C. in a humidified atmosphere containing 5% CO2.
(§3) Cells are detached from T-175 flasks with a sterile solution containing 5 mM EDTA in phosphate buffered saline. Cells are harvested by centrifugation and washed in RPMl media at […] for 5 minutes. The pellet is resuspended inTris-HCl (pH7.4) containing 1 uM phsphoramidon and 4 ug/ml of chymostatin at a cell density of 30×10^6 cells/ml. The suspension is then homogenized in a Brinkman Polytron (setting 5) for 30-45 seconds. The homogenate is centrifuged at 800×g for 5 min at 4° C. to collect unbroken cells and nuclei. The supernatant is centrifuged in a Sorvall RC5C at 19,000 rpm ([…]) for 30 min at 4° C. The pellet is resuspended, an aliquot is removed for a protein determination (BCA) and washed again. The resulting pellet is stored at -80° C.
(§4) To assay receptor binding, 50 μl of [^3 H]-Substance P (9-Sar, 11 -Met) (specific activity 41 Ci/mmol) (Dupont-NEN) (0.8 nM for the NK-1 assay) or [^3 H]-Neurokinin A (specific activity 114 Ci/mmole) (Zenca) (1.0 nM for the NK-2 assay) is added to tubes containing buffer (50 mM Tris-HCl (pH 7.4) with 1 mM MnCl2 and 0.2% Bovine Serum Albumin) and either DMSO or test compound. Binding is initiated by the addition of 100 μl of membrane (10-20 μg) containing the human NK-1 or NK-2 receptor in a final volume of 200 μl. After 40 minutes at room temperature, the reaction is stopped by rapid filtration onto Whatman GF/C filters which have been presoaked in 0.3% polyethylenimine. Filters are washed 2 times with 3 ml of 50 mM Tris-HCl (pH7.4). Filters are added to 6 mIs of Ready-Safe liquid scintillation cocktail and quantified by liquid scintillation spectrometry in a LKB 1219 RackBeta counter. Non-specific binding is determined by the addition of either 1 μM of CP-99994 (NK-1) or 1 μM SR-48968 (NK-2) (both synthesized by the chemistry department of Schering-Plough Research Institute). IC50 values are determined from competition binding curves and Ki values are determined according to Cheng and Prusoff using the experimentally determined value of 0.8 nM for the NK-1 receptor and 2.4 nM for the NK-2 receptor.
(§5) % Inhibition is the difference between the percent of maximum specific binding (MSB) and 100%. The percent of MSB is defined by the following equation, wherein "dpm" is disintegrations per minute: [formula]

Experiment [2] concerns the target T2, human neurokinin 2 (NK2) receptor (Homo sapiens, UniProt P21452).
T2 construct: expressed in transfected cells; host or cells: Chinese Hamster ovary (CHO) cells
T2 sequence (P21452 1-398): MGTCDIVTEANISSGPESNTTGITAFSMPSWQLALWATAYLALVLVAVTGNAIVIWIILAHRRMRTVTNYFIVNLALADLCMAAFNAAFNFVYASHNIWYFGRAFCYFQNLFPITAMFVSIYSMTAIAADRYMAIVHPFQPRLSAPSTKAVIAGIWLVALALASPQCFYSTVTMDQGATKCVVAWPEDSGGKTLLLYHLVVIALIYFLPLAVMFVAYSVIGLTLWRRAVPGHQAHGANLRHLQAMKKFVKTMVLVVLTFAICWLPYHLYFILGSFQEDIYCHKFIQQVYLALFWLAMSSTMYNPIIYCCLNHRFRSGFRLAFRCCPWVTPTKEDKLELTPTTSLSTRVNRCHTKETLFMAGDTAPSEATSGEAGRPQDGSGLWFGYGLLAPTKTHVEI
The experiment in a line: Neurokinin Receptor Binding Assay, NK2. The conditions noted are these: for inhibition at 1 µM: read-out: % Inhibition NK2 (1 μM dose). On the procedure: as §1, §2, §3, §4, §5

In the next experiment the target is T3, NK3 (Homo sapiens, UniProt P29371).
T3 sequence (P29371 1-465): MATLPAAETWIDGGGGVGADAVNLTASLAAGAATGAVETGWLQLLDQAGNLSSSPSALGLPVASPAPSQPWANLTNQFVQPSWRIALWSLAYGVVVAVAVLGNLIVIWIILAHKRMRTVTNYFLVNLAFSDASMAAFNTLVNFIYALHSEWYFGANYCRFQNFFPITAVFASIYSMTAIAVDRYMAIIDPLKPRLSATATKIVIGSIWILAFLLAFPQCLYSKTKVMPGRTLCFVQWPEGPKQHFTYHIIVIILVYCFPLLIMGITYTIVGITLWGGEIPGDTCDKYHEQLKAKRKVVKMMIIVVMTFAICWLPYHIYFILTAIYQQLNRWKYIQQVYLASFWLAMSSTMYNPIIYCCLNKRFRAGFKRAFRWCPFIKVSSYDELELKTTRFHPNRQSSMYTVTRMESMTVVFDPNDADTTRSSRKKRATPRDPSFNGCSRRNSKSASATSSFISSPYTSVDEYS
The experiment in a line: NK3 activity (procedure similar to literature). It is filed as binding. On the procedure:
NK3 activity is determined by following a procedure similar to that described in the literature, e.g., Molecular PharmacoL, 48 (1995), p. 711-716.

Setting [3] is: [3H]-Substance P, CHO cell membranes.
The mark [4] stands for this setting: [3H]-Substance P, CHO cell membranes, read-out: Ki (NK1).
The mark [5] stands for this setting: 1 μM dose, [3H]-Neurokinin A, CHO cell membranes.
The mark [6] stands for this setting: [3H]-Neurokinin A, CHO cell membranes, read-out: Ki (NK2).

Where two headings read alike, the source gives them in different places.

T1 sequence (P25103 whole entry): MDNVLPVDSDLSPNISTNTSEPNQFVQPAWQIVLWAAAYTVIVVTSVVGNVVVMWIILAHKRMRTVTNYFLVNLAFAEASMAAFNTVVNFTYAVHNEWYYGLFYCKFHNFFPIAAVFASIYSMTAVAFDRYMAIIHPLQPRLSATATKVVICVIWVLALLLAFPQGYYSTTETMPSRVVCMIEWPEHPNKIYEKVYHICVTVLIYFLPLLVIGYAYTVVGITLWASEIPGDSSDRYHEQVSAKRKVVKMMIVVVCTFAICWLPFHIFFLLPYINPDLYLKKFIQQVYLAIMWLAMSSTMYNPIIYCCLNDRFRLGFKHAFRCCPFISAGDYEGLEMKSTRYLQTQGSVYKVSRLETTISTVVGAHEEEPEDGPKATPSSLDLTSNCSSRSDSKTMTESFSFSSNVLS

Take `CON=C(COCc1cc(C(F)(F)F)cc(C(F)(F)F)c1)C(CCN1CCC(C(=O)N2CCCC2)CC1)c1ccc(Cl)c(Cl)c1` (stereo not shown) [Example 42L]: the inhibition (as a rule, the drop in the measured response relative to a control, in per cent) at 1 µM in experiment [1] (setting [3]) worked out at 91%; in experiment [2] (setting [5]), 86%. Further, the Ki (usually the equilibrium dissociation constant of an inhibitor or competing ligand from its target) in experiment [1] (setting [4]) stood at 0.0046 µM; in experiment [2] (setting [6]) it was 0.123 µM.
`OCCN(CC=C(COCc1cc(C(F)(F)F)cc(C(F)(F)F)c1)C(CCN1CCC(O)(c2ccccc2)CC1)c1ccc(Cl)c(Cl)c1)CCO` (stereo not shown) [Example 35C]: the figures for the inhibition at 1 µM in experiment [1] (setting [3]) and in experiment [2] (setting [5]) were 93% and 0%, respectively. Moreover, in experiment [1] (setting [4]), the Ki came to 0.002 µM.
As to `NC(CON=C(COCc1cc(C(F)(F)F)cc(C(F)(F)F)c1)C(CCN1CCC(N2CCCCC2)CC1)c1ccc(Cl)c(Cl)c1)=NO` (stereo not shown) [Example 39F], the inhibition at 1 µM was found to be 93% in experiment [1] (setting [3]) and 96% in experiment [2] (setting [5]). In addition, the Ki in experiment [1] (setting [4]) was 0.0043 µM; in experiment [2] (setting [6]) it was 0.012 µM.
In the case of `CON=C(COCc1cc(C(F)(F)F)cc(C(F)(F)F)c1)C(CCN1CCC(O)(c2ccccc2)CC1)c1ccc(Cl)c(Cl)c1` (stereo not shown) [Example 1], the values for the inhibitory constant (Ki) (in experiment [1]; on NK3; in experiment [2]) were 0.025 µM, 0.109 µM and 0.02 µM, respectively. For the same compound, the inhibition at 1 µM turned out to be 88% in experiment [1] (setting [3]) and 95% in experiment [2].
Turning to `OC1(c2ccccc2)CCN(CCC(C(COCc2cc(C(F)(F)F)cc(C(F)(F)F)c2)=NOCc2ccccc2)c2ccc(Cl)c(Cl)c2)CC1` (stereo not shown) [Example 1C], the inhibition at 1 µM in experiment [1] (setting [3]) was determined as 44%; in experiment [2] (setting [5]), 16%.
Regarding `CCOC(=O)C=C(COCc1cc(C(F)(F)F)cc(C(F)(F)F)c1)C(CCN1CCC(O)(c2ccccc2)CC1)c1ccc(Cl)c(Cl)c1` (stereo not shown) [Example 2], the inhibition at 1 µM turned out to be 69% in experiment [1] (setting [3]) and 17% in experiment [2] (setting [5]). For the same compound, the Ki in experiment [1] (setting [4]) was 0.04 µM.
The corresponding values for `CN1CCN(N=C(COCc2cc(C(F)(F)F)cc(C(F)(F)F)c2)C(CCN2CCC(O)(c3ccccc3)CC2)c2ccc(Cl)c(Cl)c2)CC1` (stereo not shown) [Example 7] are 69%, 13% and 0.121 µM.
As to `CON=C(COCc1cccc(C)c1F)C(CCN1CCC(O)(c2ccccc2)CC1)c1ccc(Cl)c(Cl)c1` (stereo not shown) [Example 22AK], the inhibition at 1 µM in experiment [1] (setting [3]) worked out at 67%; in experiment [2] (setting [5]) it was 95%. Further, the Ki was determined as 0.132 µM in experiment [1] (setting [4]) and 0.002 µM in experiment [2] (setting [6]).
For the compound `CON=C(COCc1noc(C(C)(C)C)n1)C(CCN1CCC(O)(c2ccccc2)CC1)c1ccc(Cl)c(Cl)c1` (stereo not shown) [Example 22AL], the inhibition at 1 µM in experiment [1] (setting [3]) is 12%; in experiment [2] (setting [5]), 100%. Moreover, the Ki in experiment [2] (setting [6]) is 0.002 µM.
